Test results reported in PubChem BioAssay AID180 (DTP/NCI, 2004).
Values joined by “and” are separate entries in the source; they are usually repeats but may differ in a detail not shown here. Equal entries are not always repeated.

Test system: BDF1 mice, Adenocarcinoma 755 s.c., tumor weight T/C
Assay: NCI In Vivo Anticancer Drug Screen. Data for tumor model Adenocarcinoma 755 (subcutaneous) in B6D2F1 (BDF1) mice
Conditions: endpoint: mean tumor weight, higher = larger tumour
Outline: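 Transplantable tumor implanted; mice dosed with compound or vehicle; survival or tumor size recorded; ratio of treated to vehicle control reported.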

[1] = dose: 12.5 mg/kg/injection, schedule: Q01DX011 (ip), vehicle: carboxymethylcellulose (CMC)
[2] = dose: 50.0 mg/kg/injection, schedule: Q01DX011 (ip), vehicle: carboxymethylcellulose (CMC)

## CC(C)n1cnc2c(=S)nc[nH]c21
dose: 0.2 mg/kg/injection, schedule: Q01DX011 (ip), vehicle: carboxymethylcellulose (CMC)
  T/C: 114 % of control
dose: 0.39 mg/kg/injection, schedule: Q01DX011 (ip), vehicle: carboxymethylcellulose (CMC)
  T/C: 67 % of control
dose: 0.45 mg/kg/injection, schedule: Q01DX011 (ip), vehicle: carboxymethylcellulose (CMC)
  T/C: 63 % of control
dose: 0.78 mg/kg/injection, schedule: Q01DX011 (ip), vehicle: carboxymethylcellulose (CMC)
  T/C: 111 % of control
dose: 0.9 mg/kg/injection, schedule: Q01DX011 (ip), vehicle: carboxymethylcellulose (CMC)
  T/C: 62 % of control
dose: 0.9 mg/kg/injection, schedule: Q01DX011 (oral), vehicle: carboxymethylcellulose (CMC)
  T/C: 52 % of control
dose: 1.56 mg/kg/injection, schedule: Q01DX011 (ip), vehicle: carboxymethylcellulose (CMC)
  T/C: 50 % of control
dose: 1.8 mg/kg/injection, schedule: Q01DX011 (ip), vehicle: carboxymethylcellulose (CMC)
  T/C: 15 % of control
dose: 1.8 mg/kg/injection, schedule: Q01DX011 (oral), vehicle: carboxymethylcellulose (CMC)
  T/C: 11 % of control
dose: 3.12 mg/kg/injection, schedule: Q01DX011 (ip), vehicle: carboxymethylcellulose (CMC)
  T/C: 9 % of control
dose: 3.6 mg/kg/injection, schedule: Q01DX011 (ip), vehicle: carboxymethylcellulose (CMC)
  T/C: 1 % of control
dose: 3.6 mg/kg/injection, schedule: Q01DX011 (oral), vehicle: carboxymethylcellulose (CMC)
  T/C: 5 % of control
dose: 3.62 mg/kg/injection, schedule: Q01DX011 (ip), vehicle: carboxymethylcellulose (CMC)
  T/C: 7 % of control and 14 % of control
dose: 6.25 mg/kg/injection, schedule: Q01DX011 (ip), vehicle: carboxymethylcellulose (CMC)
  T/C: 6 % of control
dose: 7.25 mg/kg/injection, schedule: Q01DX011 (ip), vehicle: carboxymethylcellulose (CMC)
  T/C: 3 % of control and 6 % of control
dose: 7.25 mg/kg/injection, schedule: Q01DX011 (oral), vehicle: carboxymethylcellulose (CMC)
  T/C: 11 % of control
[1]
  T/C: 3 % of control
dose: 14.5 mg/kg/injection, schedule: Q01DX011 (ip), vehicle: carboxymethylcellulose (CMC)
  T/C: 1 % of control
dose: 25.0 mg/kg/injection, schedule: Q01DX011 (ip), vehicle: carboxymethylcellulose (CMC)
  T/C: 8 % of control
dose: 29.0 mg/kg/injection, schedule: Q01DX011 (oral), vehicle: carboxymethylcellulose (CMC)
  T/C: 2 % of control
[2]
  T/C: 3 % of control and 6 % of control

## COC(=O)c1[nH]c(=O)[nH]c(=O)c1F
dose: 3.0 mg/kg/injection, schedule: Q01DX011 (ip), vehicle: methylcellulose (MC)
  T/C: 72 % of control
dose: 6.0 mg/kg/injection, schedule: Q01DX011 (ip), vehicle: methylcellulose (MC)
  T/C: 63 % of control
dose: 12.0 mg/kg/injection, schedule: Q01DX011 (ip), vehicle: methylcellulose (MC)
  T/C: 91 % of control

## Nc1nc(I)c2[nH]cnc2n1
dose: 15.0 mg/kg/injection, schedule: Q01DX011 (ip), vehicle: methylcellulose (MC)
  T/C: 52 % of control
dose: 30.0 mg/kg/injection, schedule: Q01DX011 (ip), vehicle: methylcellulose (MC)
  T/C: 109 % of control
dose: 60.0 mg/kg/injection, schedule: Q01DX011 (ip), vehicle: methylcellulose (MC)
  T/C: 41 % of control
dose: 120.0 mg/kg/injection, schedule: Q01DX011 (ip), vehicle: methylcellulose (MC)
  T/C: 44 % of control

## COCCCNS(=O)(=O)c1ncnc2nc[nH]c12
dose: 1.0 mg/kg/injection, schedule: Q01DX011 (ip), vehicle: carboxymethylcellulose (CMC)
  T/C: 79 % of control
dose: 1.0 mg/kg/injection, schedule: Q01DX011 (ip), vehicle: saline
  T/C: 74 % of control
dose: 2.5 mg/kg/injection, schedule: Q01DX011 (ip), vehicle: saline
  T/C: 96 % of control
dose: 3.0 mg/kg/injection, schedule: Q01DX011 (ip), vehicle: carboxymethylcellulose (CMC)
  T/C: 63 % of control and 81 % of control
dose: 3.0 mg/kg/injection, schedule: Q01DX011 (ip), vehicle: saline
  T/C: 163 % of control
dose: 5.0 mg/kg/injection, schedule: Q01DX011 (ip), vehicle: carboxymethylcellulose (CMC)
  T/C: 86 % of control
dose: 6.0 mg/kg/injection, schedule: Q01DX011 (ip), vehicle: other
  T/C: 105 % of control
dose: 10.0 mg/kg/injection, schedule: Q01DX011 (ip), vehicle: carboxymethylcellulose (CMC)
  T/C: 80 % of control
dose: 12.0 mg/kg/injection, schedule: Q01DX011 (ip), vehicle: other
  T/C: 43 % of control
[1]
  T/C: 8 % of control (2×) and 30 % of control
dose: 12.5 mg/kg/injection, schedule: Q01DX011 (ip), vehicle: saline
  T/C: 24 % of control
dose: 25.0 mg/kg/injection, schedule: Q01DX011 (ip), vehicle: other
  T/C: 37 % of control
dose: 25.0 mg/kg/injection, schedule: Q01DX011 (ip), vehicle: saline
  T/C: 5 % of control and 9 % of control
[2]
  T/C: 3 % of control and 4 % of control
dose: 50.0 mg/kg/injection, schedule: Q01DX011 (ip), vehicle: saline
  T/C: 5 % of control
dose: 100.0 mg/kg/injection, schedule: Q01DX011 (ip), vehicle: carboxymethylcellulose (CMC)
  T/C: 3 % of control
dose: 100.0 mg/kg/injection, schedule: Q01DX011 (ip), vehicle: other
  T/C: 7 % of control
dose: 200.0 mg/kg/injection, schedule: Q01DX011 (ip), vehicle: saline
  T/C: 1 % of control
